{
  "source": "patent US10898592B2",
  "about": "“Compositions and methods for reducing the risk of post-imaging pancreatitis” (University Of Pittsburgh—Of The Commonwealth System Of …, priority 2015, dated 2021)",
  "key": {"[1]": {"test_system": "calcineurin (NFAT-luciferase)", "assay": "NFAT-luciferase activity assay, AR42J cells", "format": "cell-based", "conditions": "pretreatment; FK506 24 μM; CsA 16 μM; U73122 5 μM; 2-APB 100 μM; BAPTA 64 μM", "experimental": "(§1) NFAT-luciferase activity assay. Acinar cells were infected with Ad-NFAT-luciferase following a previously described procedure^10,15,16. The construct includes a luciferase gene placed downstream of an IL-4 promoter which contains nine tandem NFAT binding sites^10. Acinar cells were incubated with the NFAT-driven luciferase adenovirus for 1.5 hr prior to stimulation. All of the stated inhibitors were added for 30 min prior to stimulation with RC. NFAT-luciferase was measured using the luciferase assay system. Briefly, cells were spun at 1,000 rpm for 5 min, washed with PBS, and lysed using reporter lysis 5× buffer (Promega #E397A, Madison, Wis.). Samples were vortexed and spun at 12,000 g for 2 min. Supernatant was plated, and luminescence was measured using a Synergy H1 plate reader (BioTek, Winooski, Vt.) and normalized to total protein."}, "[2]": {"test_system": "calcineurin (NFAT-luciferase)", "assay": "NFAT-luciferase activity assay (calcineurin activation), mouse primary acinar cells", "format": "cell-based", "conditions": "30 min pre-treatment; FK506 24 μM; CsA 16 μM; BAPTA-AM 64 μM", "experimental": "as §1"}, "primary acinar cells": {"test_system": "primary acinar cells", "assay": "Cell necrosis assay (propidium iodide uptake), primary acinar cells", "format": "cell-based, mouse", "conditions": "6 hr incubation; U73122 5 μM; 2-APB 100 μM; BAPTA 64 μM; IKK-2 20 μM; FK506 24 μM; CsA 16 μM", "experimental": "Cell necrosis assay. Acinar cells were incubated in a 48-well plate with 50 μg/ml of propidium iodide (PI) for 30 min prior to addition of RC. Fluorescence was measured at 536 nm excitation and 617 nm emission wavelengths over time a time course of up to 6 hr. Fluorescence was measured after cell lysis with 0.5% Triton-X 100 was used to normalize the results relative to total DNA."}, "NF-κB": {"test_system": "NF-κB", "assay": "NF-κB-luciferase activity assay, AR42J cells", "format": "cell-based", "conditions": "U73122 5 μM; 2-APB 100 μM; BAPTA 64 μM", "experimental": "NF-κB-luciferase activity assay. AR42J cells were differentiated towards an acinar phenotype by administering dexamethasone (100 nM) for 48-72 hr^17. AR42J cells were infected with Ad-NF-κB luciferase 16 h prior to stimulation using a previously described method^12. Following a wash with DMEM/F12 medium, acinar cells were evenly distributed in a 48-well plate and incubated for 30 min at 37° C. They were incubated with RC at varying concentrations and times. NF-κB-luciferase was measured using a commercially available luciferase assay (Promega, Madison, Wis.). Briefly, cells were spun at 1,000 rpm for 5 min, washed with PBS, and lysed using reporter lysis 5× buffer (Promega, catalog no. E397A). Samples were vortexed and spun at 12,000×g for 2 min. The supernatant was plated, and luminescence was measured using a Synergy H1 plate reader (BioTek, Winooski, Vt.) and normalized to total […]."}, "[3]": {"test_system": "calcineurin (NFAT-luciferase)", "assay": "NFAT-luciferase activity assay, human acinar cells", "format": "cell-based", "experimental": "as §1"}},
  "data": [
    {"compound": "CC(=O)OCOC(=O)CN(CC(=O)OCOC(C)=O)c1ccccc1OCCOc1ccccc1N(CC(=O)OCOC(C)=O)CC(=O)OCOC(C)=O", "note": "[BAPTA, BAPTA-AM]", "values": [
      {"measurement": "effect on RC (6%)-induced NFAT-luciferase activity", "setting": "[1]", "value": "prevented"},
      {"measurement": "effect on RC (9%)-induced rise in NFAT-luciferase", "setting": "[2]", "value": "completely reduced"},
      {"measurement": "effect on RC (12%)-induced acinar cell injury (PI uptake)", "setting": "primary acinar cells", "value": "prevented"},
      {"measurement": "effect on RC-induced NF-κB-luciferase levels", "setting": "NF-κB", "value": "reduced"},
      {"measurement": "effect on RC (25%)-induced NFAT-luciferase activity", "setting": "[3]", "value": "prevented"}
    ]}
  ]
}
